Consider six compounds from US7446107B2, “Crystalline forms of conazoles and methods of making and using the same” (Transform Pharmaceuticals, Inc., priority 2002, dated 2008).

The nature of series [1]: Hygroscopicity determination (humidity chambers). Particulars: 75% relative humidity, 25° C., 8 hours. It is filed as physicochemical. Here is the method: The hygroscopicity profiles for a sample from each of vials 1-5, as well as cis-itraconazole free base, were determined by exposing a sample from each of vials 1-5 to four different environments of varying relative humidity (namely, 0%, 30%, 57%, and 75%), and incubating the samples in that environment for about 8 hours at room temperature (20-25° C.). The humidity chambers consisted of desiccators with desiccants/salt baths in the bottom, above which the open vials containing samples were suspended.
The relative hygroscopicity of each sample was determined using methods well known to one skilled in the pharmaceutical arts as reported in “Pharmaceutical Preformulation & Formulation: A Practical Guide From Candidate Drug Selection to Commercial Dosage Form,” Ed. Mark Gibson, published by IHS Health Group Co, p. 49 (2001), which is incorporated herein by reference in its entirety.

Series [2] can be described thus: Physical form after incubation in pH 1 buffer (PXRD). Particulars: 2 hours, room temperature. Format: physicochemical. Here is the method:
70 μl of pH 1 buffer (1 N HCl adjusted to pH 1 using 1 N NaOH) was added to the same well. The sample was incubated at room temperature with vigorous mixing for 2 hours. At the end of the assay, the 384 well plate was centrifuged for 2 minutes at 500 xg and the supernatant was removed by aspiration.
The remaining solid state was analyzed by X-ray powder diffraction in a borosilicate tube, but otherwise using the same equipment, software, procedures, and parameters described in Example 1.

Series [3] in a line: Solubility in pH 1 buffer (HPLC-UV). It is filed as physicochemical.
Experimental: Beginning with the longest time point, pH 1 buffer (1 N HCl adjusted to pH 1 using 1 N NaOH) was added to each of the wells containing samples until completion of the shortest time points. The samples were vigorously stirred throughout the experiment. At the end of the assay, the solution and solid states of all the samples were separated by centrifugation in a polyvinylidene fluoride 96-well filter plate for 2 minutes at 500 xg.
Approximately 30 μl of solution was collected from the solution state of each sample and diluted in 120 μl of methanol in glass vials. Aluminum caps were crimped on the vial tops to prevent evaporation of methanol.
The conditions of series [4]: cited from earlier work.
A short description of series [5]: Solubility in THF (observation during synthesis). It is filed as physicochemical. The following applies: up to 70° C. The text has this: Thereafter, the vials were removed from the oven, the caps from all the bottles were removed, and the samples were allowed to evaporate in air under ambient conditions. Once significant amounts of solids were present in a sample, the remaining liquid in the sample was removed by pipetting out the liquid phase and using suction filtration with Whatman filter paper to rescue any solid that may have been dispersed in the liquid phase. The remaining solid in the liquid phase and the filtrate were dried in the vacuum oven (VWR Scientific, Model # 1400E) under vacuum for at least 12 hours. With regard to vial 3, the solid crashed out of solution as soon as the acid was added and never went into solution even at 70° C.; however, the solid in the sample was harvested in the same manner as the other samples.

As to `CCC(C)n1ncn(-c2ccc(N3CCN(c4ccc(OCC5COC(Cn6cncn6)(c6ccc(Cl)cc6Cl)O5)cc4)CC3)cc2)c1=O.O=S(=O)(O)c1ccccc1` (stereo not drawn) [cis-itraconazole benzensulfonate], the relative hygroscopicity result in series [1] was “hygroscopic (greater than 2% and less than 15% weight loss after incubation in 75% relative humidity at 25 °C for 8 hours)”.
As to `CCC(C)n1ncn(-c2ccc(N3CCN(c4ccc(OCC5COC(Cn6cncn6)(c6ccc(Cl)cc6Cl)O5)cc4)CC3)cc2)c1=O.O=C(O)C(O)C(O)C(=O)O` (racemic) [cis-itraconazole DL-tartrate], in series [1], the relative hygroscopicity entry is “slightly hygroscopic (greater than 0.2% and less than 2% weight loss after incubation in 75% relative humidity at 25 °C for 8 hours)”.
Regarding `CCC(C)n1ncn(-c2ccc(N3CCN(c4ccc(OCC5COC(Cn6cncn6)(c6ccc(Cl)cc6Cl)O5)cc4)CC3)cc2)c1=O.O=C(O)C=CC(=O)O` (stereo not drawn) [cis-itraconazole fumaric acid co-crystal], in series [2], the “solid state form after incubation” value is listed as “did not change form”. The relative hygroscopicity entry in series [1] was “slightly hygroscopic (greater than 0.2% and less than 2% weight loss after incubation in 75% relative humidity at 25 °C for 8 hours)”. Besides, the “solubility relative to free base” value in series [3] (15 minutes) is “at least 4 fold”; in series [3] (4 hours), “approximately 1.5 fold”.
As to `CCC(C)n1ncn(-c2ccc(N3CCN(c4ccc(OC[C@H]5CO[C@](Cn6cncn6)(c6ccc(Cl)cc6Cl)O5)cc4)CC3)cc2)c1=O` (mixture of isomers) [cis-itraconazole free base, (±)cis-4-[4-[4-[4-[[2-(2,4-dichlorophenyl)-2-(1H-1,2,4-triazol-1-ylmethyl)-1,3-dioxolan-4-yl]methoxy]phenyl]-1-piperazinyl]phenyl]-2,4-dihydro-2-(1-methylpropyl)-3H-1,2,4-triazol-3-one, reference compound], in series [4], the solubility in water result was “only very sparingly soluble in water”. In addition, in series [3] (measured period up to 120 minutes), the “change of solubility with time” value is reported as “did not change over the measured period of time”.
For the compound `CCC(C)n1ncn(-c2ccc(N3CCN(c4ccc(OCC5COC(Cn6cncn6)(c6ccc(Cl)cc6Cl)O5)cc4)CC3)cc2)c1=O.O=P(O)(O)O` (stereo not drawn) [cis-itraconazole phosphate], in series [1], the relative hygroscopicity result was “slightly hygroscopic (greater than 0.2% and less than 2% weight loss after incubation in 75% relative humidity at 25 °C for 8 hours)”.
For `CCC(C)n1ncn(-c2ccc(N3CCN(c4ccc(OCC5COC(Cn6cncn6)(c6ccc(Cl)cc6Cl)O5)cc4)CC3)cc2)c1=O.O=S(=O)(O)O` (stereo not drawn) [cis-itraconazole sulfate], in series [5], the “solubility in THF” value is reported as “insoluble or only slightly soluble in THF”. In addition, the relative hygroscopicity entry in series [1] is “hygroscopic (greater than 2% and less than 15% weight loss after incubation in 75% relative humidity at 25 °C for 8 hours)”.
